Assay results as given in paper PMC6789782, “Safety Pharmacological Evaluation of the Coffee Component, Caffeoylquinic Acid, and Its Metabolites, Using Ex Vivo and In Vitro Profiling Assays” (Pharmaceuticals, 2019).
Where two headings read alike, the source gives them in different places.

Assays:
Dopamine D1 = Dopamine D1 (Homo sapiens, UniProt P21728); assay: In vitro profiling, binding assay
Experimental: (§1) Binding and functional assays of CGAs with the proteins known to be pharmacological targets related to the CVS, CNS, and GI functions were conducted. […] In the binding assay, we measured the radiation activity of the solution containing filtered proteins that bound to the tested compound or high-affinity ligand, while in the functional assays, we measured the reaction product. The ability of the test compound to interact with the tested targets was measured as the inhibition of ligand binding to the target or reaction product production (% inhibition).

Opiate μ = Opiate μ (Homo sapiens, UniProt P35372); assay: In vitro profiling, binding assay
Experimental: as §1

Cannabinoid CB1 = Cannabinoid CB1 (Homo sapiens, UniProt P21554); assay: In vitro profiling, binding assay
Experimental: as §1

5-HT1A = biological target: T1, 5-HT1A (Homo sapiens, UniProt P08908); assay: In vitro profiling, binding assay
T1 sequence (P08908 1-422): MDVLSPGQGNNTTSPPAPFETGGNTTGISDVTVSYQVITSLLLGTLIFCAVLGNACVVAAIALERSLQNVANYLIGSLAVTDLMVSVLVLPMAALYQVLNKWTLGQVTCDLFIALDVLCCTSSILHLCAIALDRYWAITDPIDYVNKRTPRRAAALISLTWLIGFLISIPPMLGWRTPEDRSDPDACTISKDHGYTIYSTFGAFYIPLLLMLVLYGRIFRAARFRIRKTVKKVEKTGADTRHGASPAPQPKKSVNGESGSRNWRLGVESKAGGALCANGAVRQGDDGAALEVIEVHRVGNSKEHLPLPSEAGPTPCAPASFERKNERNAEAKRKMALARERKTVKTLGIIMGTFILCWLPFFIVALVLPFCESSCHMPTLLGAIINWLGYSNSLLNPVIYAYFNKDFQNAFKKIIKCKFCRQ
Experimental: as §1

5-HT2B = 5-HT2B (Homo sapiens, UniProt P41595); assay: In vitro profiling, binding assay
Experimental: as §1

Adrenergic α1A = biological target: T2, Adrenergic α1A (Rattus norvegicus, UniProt P43140); assay: In vitro profiling, binding assay
T2 sequence (P43140 1-466): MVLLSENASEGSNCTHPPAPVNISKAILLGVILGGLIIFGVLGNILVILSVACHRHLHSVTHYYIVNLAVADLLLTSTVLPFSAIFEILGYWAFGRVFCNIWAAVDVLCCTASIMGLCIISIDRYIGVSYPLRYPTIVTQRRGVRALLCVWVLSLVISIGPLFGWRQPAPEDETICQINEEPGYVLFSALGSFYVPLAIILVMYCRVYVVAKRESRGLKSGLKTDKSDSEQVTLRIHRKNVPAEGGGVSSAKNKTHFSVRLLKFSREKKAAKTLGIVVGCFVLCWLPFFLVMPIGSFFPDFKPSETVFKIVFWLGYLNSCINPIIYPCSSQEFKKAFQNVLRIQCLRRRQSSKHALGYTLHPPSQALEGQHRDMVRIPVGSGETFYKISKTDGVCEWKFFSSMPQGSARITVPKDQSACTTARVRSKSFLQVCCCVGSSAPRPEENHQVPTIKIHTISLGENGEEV
Experimental: as §1

Muscarinic M2 = biological target: T3, Muscarinic M2 (Homo sapiens, UniProt P08172); assay: In vitro profiling, binding assay
T3 sequence (P08172 1-466): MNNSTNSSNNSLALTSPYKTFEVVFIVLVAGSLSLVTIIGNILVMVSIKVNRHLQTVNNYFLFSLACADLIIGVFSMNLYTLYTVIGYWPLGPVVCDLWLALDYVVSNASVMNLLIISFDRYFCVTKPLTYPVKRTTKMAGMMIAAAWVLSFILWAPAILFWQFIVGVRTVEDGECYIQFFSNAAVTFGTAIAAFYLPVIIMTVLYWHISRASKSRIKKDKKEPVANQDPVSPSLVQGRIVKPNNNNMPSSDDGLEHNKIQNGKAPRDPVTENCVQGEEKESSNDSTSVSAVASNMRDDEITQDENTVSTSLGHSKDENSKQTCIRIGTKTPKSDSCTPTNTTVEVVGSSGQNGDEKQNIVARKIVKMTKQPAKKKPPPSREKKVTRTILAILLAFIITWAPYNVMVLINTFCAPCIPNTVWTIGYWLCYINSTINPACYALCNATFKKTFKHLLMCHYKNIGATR
Experimental: as §1

Adrenergic α2A = biological target: T4, Adrenergic α2A (Homo sapiens, UniProt P08913); assay: In vitro profiling, binding assay
T4 sequence (P08913 1-465): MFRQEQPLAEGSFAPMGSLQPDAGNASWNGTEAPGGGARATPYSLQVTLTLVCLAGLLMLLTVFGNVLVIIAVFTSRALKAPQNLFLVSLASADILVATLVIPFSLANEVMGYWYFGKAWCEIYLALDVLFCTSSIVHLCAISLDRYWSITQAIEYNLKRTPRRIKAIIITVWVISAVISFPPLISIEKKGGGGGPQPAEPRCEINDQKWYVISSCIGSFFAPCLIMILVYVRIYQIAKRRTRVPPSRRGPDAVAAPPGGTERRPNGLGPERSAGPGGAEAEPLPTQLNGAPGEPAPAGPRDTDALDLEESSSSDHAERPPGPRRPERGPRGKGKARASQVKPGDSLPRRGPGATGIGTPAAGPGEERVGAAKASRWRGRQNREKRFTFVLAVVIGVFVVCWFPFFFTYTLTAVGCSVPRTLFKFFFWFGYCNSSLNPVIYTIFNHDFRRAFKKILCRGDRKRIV
Experimental: as §1

Histamine H2 = Histamine H2 (Homo sapiens, UniProt P25021); assay: In vitro profiling, binding assay
Experimental: as §1

Phosphodiesterase PDE4 = assay: In vitro profiling, functional assay; assay type: biochemical, human; conditions: 30 µM
Experimental: as §1

[1] = 30 µM, Dopamine D1, read-out: % Inhibition
[2] = 30 µM, Opiate μ, read-out: % Inhibition
[3] = 30 µM, Cannabinoid CB1, read-out: % Inhibition
[4] = 30 µM, 5-HT1A, read-out: % Inhibition
[5] = 30 µM, 5-HT2B, read-out: % Inhibition
[6] = 30 µM, Adrenergic α1A, read-out: % Inhibition
[7] = 30 µM, Muscarinic M2, read-out: % Inhibition
[8] = 30 µM, Adrenergic α2A, read-out: % Inhibition
[9] = 30 µM, Histamine H2, read-out: % Inhibition

Sequence of Dopamine D1 (P21728 whole entry): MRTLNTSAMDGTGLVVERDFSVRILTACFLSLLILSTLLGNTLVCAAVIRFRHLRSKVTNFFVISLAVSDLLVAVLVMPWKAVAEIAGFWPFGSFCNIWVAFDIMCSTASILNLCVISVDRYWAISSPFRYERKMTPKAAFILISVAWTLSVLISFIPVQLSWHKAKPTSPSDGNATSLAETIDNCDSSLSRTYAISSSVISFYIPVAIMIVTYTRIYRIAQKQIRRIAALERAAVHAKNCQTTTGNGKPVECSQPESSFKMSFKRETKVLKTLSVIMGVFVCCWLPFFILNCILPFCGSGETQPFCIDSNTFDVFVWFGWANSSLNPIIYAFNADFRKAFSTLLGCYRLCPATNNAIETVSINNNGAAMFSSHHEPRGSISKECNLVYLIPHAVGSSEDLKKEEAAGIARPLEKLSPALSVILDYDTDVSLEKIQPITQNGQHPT
Sequence of Histamine H2 (P25021 whole entry): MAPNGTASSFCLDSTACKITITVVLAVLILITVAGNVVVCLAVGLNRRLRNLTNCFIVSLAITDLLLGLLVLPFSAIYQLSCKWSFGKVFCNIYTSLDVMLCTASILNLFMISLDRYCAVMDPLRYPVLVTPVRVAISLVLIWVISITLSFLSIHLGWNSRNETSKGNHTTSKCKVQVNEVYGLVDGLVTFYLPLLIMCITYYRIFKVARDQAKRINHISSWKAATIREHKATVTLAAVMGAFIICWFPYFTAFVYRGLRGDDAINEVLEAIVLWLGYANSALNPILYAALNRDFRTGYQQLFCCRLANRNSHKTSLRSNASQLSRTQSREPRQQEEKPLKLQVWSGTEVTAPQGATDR
Sequence of Cannabinoid CB1 (P21554 whole entry): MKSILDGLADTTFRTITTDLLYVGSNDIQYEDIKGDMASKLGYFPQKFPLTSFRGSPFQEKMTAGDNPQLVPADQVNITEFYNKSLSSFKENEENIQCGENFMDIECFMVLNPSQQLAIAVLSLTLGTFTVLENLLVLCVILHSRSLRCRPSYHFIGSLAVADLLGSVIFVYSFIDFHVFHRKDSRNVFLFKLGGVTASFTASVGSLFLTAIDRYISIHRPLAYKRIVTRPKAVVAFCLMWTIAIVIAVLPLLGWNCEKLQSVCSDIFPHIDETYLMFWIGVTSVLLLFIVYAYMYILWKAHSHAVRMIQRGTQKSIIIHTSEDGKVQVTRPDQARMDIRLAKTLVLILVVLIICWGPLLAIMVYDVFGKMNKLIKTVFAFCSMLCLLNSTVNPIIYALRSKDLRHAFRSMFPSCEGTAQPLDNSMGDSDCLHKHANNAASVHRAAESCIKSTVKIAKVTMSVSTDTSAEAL
Sequence of 5-HT2B (P41595 whole entry): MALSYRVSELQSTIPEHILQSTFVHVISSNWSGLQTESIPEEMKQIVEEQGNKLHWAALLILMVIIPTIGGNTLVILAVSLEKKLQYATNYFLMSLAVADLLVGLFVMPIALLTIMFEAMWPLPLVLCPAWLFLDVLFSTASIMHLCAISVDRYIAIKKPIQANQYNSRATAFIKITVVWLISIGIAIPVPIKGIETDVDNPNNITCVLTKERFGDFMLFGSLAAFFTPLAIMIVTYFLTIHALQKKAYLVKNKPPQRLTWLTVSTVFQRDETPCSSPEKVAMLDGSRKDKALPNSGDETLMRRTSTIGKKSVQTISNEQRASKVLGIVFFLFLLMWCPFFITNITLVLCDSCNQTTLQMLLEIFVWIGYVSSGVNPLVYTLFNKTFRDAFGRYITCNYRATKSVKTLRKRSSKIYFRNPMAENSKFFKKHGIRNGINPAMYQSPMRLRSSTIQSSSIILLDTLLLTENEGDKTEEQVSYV
Sequence of Opiate μ (P35372 whole entry): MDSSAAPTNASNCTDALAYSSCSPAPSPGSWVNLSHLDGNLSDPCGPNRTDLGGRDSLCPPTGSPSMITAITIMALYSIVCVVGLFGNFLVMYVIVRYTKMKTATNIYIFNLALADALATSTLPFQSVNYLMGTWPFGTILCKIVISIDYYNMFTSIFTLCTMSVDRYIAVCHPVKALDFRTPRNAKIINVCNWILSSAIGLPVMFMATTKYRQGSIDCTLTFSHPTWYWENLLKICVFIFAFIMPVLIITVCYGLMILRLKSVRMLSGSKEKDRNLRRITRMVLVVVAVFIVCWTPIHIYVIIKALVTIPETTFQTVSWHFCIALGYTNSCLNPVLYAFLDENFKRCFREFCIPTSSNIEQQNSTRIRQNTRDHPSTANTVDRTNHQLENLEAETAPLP

| Structure (SMILES) | % Inhibition (Phosphodiesterase PDE4) | inhibition at 30 µM (Dopamine D1; [1]) | inhibition at 30 µM (Opiate μ; [2]) | inhibition at 30 µM (Cannabinoid CB1; [3]) | inhibition at 30 µM (5-HT1A; [4]) | inhibition at 30 µM (5-HT2B; [5]) | inhibition at 30 µM (Adrenergic α1A; [6]) | inhibition at 30 µM (Muscarinic M2; [7]) | inhibition at 30 µM (Adrenergic α2A; [8]) | inhibition at 30 µM (Histamine H2; [9]) | other results |
| --- | --- | --- | --- | --- | --- | --- | --- | --- | --- | --- | --- |
| O=C(O)/C=C/c1ccc(O)c(O)c1 [CA, caffeic acid] | 4% |  |  |  |  |  |  |  |  |  | % Inhibition (Dopamine D1; 30 µM, Dopamine D1): 5%; % Inhibition (Opiate μ; 30 µM, Opiate μ): −6%; % Inhibition (Cannabinoid CB1; 30 µM, Cannabinoid CB1): −9%; % Inhibition (5-HT1A; 30 µM, 5-HT1A): 9%; % Inhibition (5-HT2B; 30 µM, 5-HT2B): 1%; % Inhibition (Adrenergic α1A; 30 µM, Adrenergic α1A): 10%; % Inhibition (Muscarinic M2; 30 µM, Muscarinic M2): 23%; % Inhibition (Adrenergic α2A; 30 µM, Adrenergic α2A): −4%; % Inhibition (Histamine H2; 30 µM, Histamine H2): −6% |
| O=C(/C=C/c1ccc(O)c(O)c1)O[C@H]1C[C@@](O)(C(=O)O)C[C@H](O)[C@@H]1O [5-CQA, 5-O-caffeoylquinic acid] | −6% | 7% | 8% | -6% | 12% | -16% | 14% | -1% | 5% | 0% |  |
| COc1cc(/C=C/C(=O)O)ccc1O [FA, ferulic acid] | 7% |  |  |  |  |  |  |  |  |  | inhibition at 30 µM (Dopamine D1): -1%; inhibition at 30 µM (Opiate μ): 4%; inhibition at 30 µM (Cannabinoid CB1): -15%; inhibition at 30 µM (5-HT1A): 2%; inhibition at 30 µM (5-HT2B): 5%; inhibition at 30 µM (Adrenergic α1A): -2%; inhibition at 30 µM (Muscarinic M2): 17%; inhibition at 30 µM (Adrenergic α2A): -2%; inhibition at 30 µM (Histamine H2): -5% |
| COc1cc(/C=C/C(=O)O[C@H]2C[C@@](O)(C(=O)O)C[C@H](O)[C@@H]2O)ccc1O [5-FQA, 5-O-feruloylquinic acid] | 2% | 22% | 5% | -6% | 11% | -5% | 10% | 7% | -3% | -5% |  |
